Mortality and LC50 data for 26 compounds are collected here from ChEMBL document CHEMBL3044578, “Synthesis, insecticidal activity, and molecular docking studies of nitenpyram analogues with a flexible ester arm anchored on tetrahydropyrimidine ring” (2011).

Common to all, as to assay type: functional
Assay [1] has as its system Nilaparvata lugens. The experiment in a line: Insecticidal activity against Nilaparvata lugens (brown planthopper) assessed as mortality at 500 mg/l after 72 hr.
Assay [2] relates to Nilaparvata lugens. The experiment in a line: Insecticidal activity against Nilaparvata lugens (brown planthopper) assessed as mortality at 20 mg/l after 72 hr.
The test system of assay [3] is Nilaparvata lugens. Kind of assay: Insecticidal activity against Nilaparvata lugens (brown planthopper) assessed as mortality at 100 mg/l after 72 hr.
In assay [4] the test system is Nilaparvata lugens. The experiment in a line: Insecticidal activity against Nilaparvata lugens (brown planthopper) assessed as mortality after 72 hr.

≈ marks a conversion by molar mass, not a printed value.

By mortality is commonly meant the percentage killed. In the case of `CCCCOC(=O)CCCN1CC([N+](=O)[O-])=C(N(CC)Cc2ccc(Cl)nc2)N(C)C1`, in assay [1], the mortality at 500 µg/mL is 100%. For the same compound, in assay [2], the mortality at 20 µg/mL is 82%. Besides, the mortality at 100 µg/mL in assay [3] is 100%.

As to `CCC(C)OC(=O)CCCN1CC([N+](=O)[O-])=C(N(CC)Cc2ccc(Cl)nc2)N(C)C1` (configuration not stated), the mortality at 500 µg/mL in assay [1] is 100%. Further, the mortality at 20 µg/mL in assay [2] turned out to be 59%. The mortality at 100 µg/mL in assay [3] stood at 93%.

For the compound `CCN(Cc1ccc(Cl)nc1)C1=C([N+](=O)[O-])CN(CCCC(=O)OCC(C)C)CN1C`, in assay [1], the mortality at 500 µg/mL stood at 100%. For the same compound, in assay [2], the mortality at 20 µg/mL was found to be 54%. The mortality at 100 µg/mL in assay [3] was found to be 100%.

`CCN(Cc1ccc(Cl)nc1)C1=C([N+](=O)[O-])CN(CCCC(=O)OC(C)(C)C)CN1C`: in assay [1], the mortality at 500 µg/mL was determined as 100%. Moreover, the mortality at 20 µg/mL in assay [2] worked out at 36%. The mortality at 100 µg/mL in assay [3] is 68%.

For `CCC(C)OC(=O)CN1CC([N+](=O)[O-])=C(N(CC)Cc2ccc(Cl)nc2)N(C)C1` (configuration not stated), the mortality at 500 µg/mL in assay [1] came to 100%. Besides, the mortality at 20 µg/mL in assay [2] is 53%. Moreover, the mortality at 100 µg/mL in assay [3] was found to be 79%.

As to `CCN(Cc1ccc(Cl)nc1)C1=C([N+](=O)[O-])CN(CC(=O)OCC(C)C)CN1C`, the mortality at 500 µg/mL in assay [1] was determined as 100%. The mortality at 20 µg/mL in assay [2] was found to be 68%. In assay [3], the mortality at 100 µg/mL stood at 100%.

Take `CCN(Cc1ccc(Cl)nc1)C1=C([N+](=O)[O-])CN(CC(=O)OC(C)(C)C)CN1C`: the mortality at 500 µg/mL in assay [1] was 100%. For the same compound, in assay [2], the mortality at 20 µg/mL is 47%. Besides, the mortality at 100 µg/mL in assay [3] is 73%.

On to `CCN(Cc1ccc(Cl)nc1)C1=C([N+](=O)[O-])CN(CCC(=O)OC)CN1C`, for which the mortality at 500 µg/mL in assay [1] stood at 100%. The mortality at 20 µg/mL in assay [2] worked out at 95%. In addition, the mortality at 100 µg/mL in assay [3] stood at 100%.

As to `CCOC(=O)CCN1CC([N+](=O)[O-])=C(N(CC)Cc2ccc(Cl)nc2)N(C)C1`, the mortality at 500 µg/mL in assay [1] came to 100%. In addition, in assay [2], the mortality at 20 µg/mL turned out to be 93%. The mortality at 100 µg/mL in assay [3] is 100%.

As a reminder, the LC50 is the concentration that kills 50% of the test population. In the case of `CCCOC(=O)CCN1CC([N+](=O)[O-])=C(N(CC)Cc2ccc(Cl)nc2)N(C)C1`, the mortality at 500 µg/mL in assay [1] worked out at 100%. Moreover, the LC50 in assay [4] was 0.194 µg/mL (≈ 0.455 µM). The mortality at 20 µg/mL in assay [2] was determined as 100%. In addition, the mortality at 100 µg/mL in assay [3] was found to be 100%.

In the case of `CCN(Cc1ccc(Cl)nc1)C1=C([N+](=O)[O-])CN(CCC(=O)OC(C)C)CN1C`, the mortality at 500 µg/mL in assay [1] was found to be 100%. Further, in assay [4], the LC50 came to 0.162 µg/mL (≈ 0.38 µM). For the same compound, the mortality at 20 µg/mL in assay [2] was found to be 100%. The mortality at 100 µg/mL in assay [3] is 100%.

In the case of `CCCCOC(=O)CCN1CC([N+](=O)[O-])=C(N(CC)Cc2ccc(Cl)nc2)N(C)C1`, the mortality at 500 µg/mL in assay [1] is 100%. Also, the mortality at 20 µg/mL in assay [2] amounted to 78%. For the same compound, the mortality at 100 µg/mL in assay [3] was found to be 92%.

Regarding `CCC(C)OC(=O)CCN1CC([N+](=O)[O-])=C(N(CC)Cc2ccc(Cl)nc2)N(C)C1` (configuration not stated), in assay [1], the mortality at 500 µg/mL was found to be 100%. Moreover, the mortality at 20 µg/mL in assay [2] came to 84%. Besides, the mortality at 100 µg/mL in assay [3] is 100%.

For the compound `CCN(Cc1ccc(Cl)nc1)C1=C([N+](=O)[O-])CN(CCC(=O)OCC(C)C)CN1C`, the mortality at 500 µg/mL in assay [1] was determined as 100%. In addition, the mortality at 20 µg/mL in assay [2] came out at 52%. Also, the mortality at 100 µg/mL in assay [3] was 100%.

In the case of `CCN(Cc1ccc(Cl)nc1)C1=C([N+](=O)[O-])CN(CCC(=O)OC(C)(C)C)CN1C`, the mortality at 500 µg/mL in assay [1] was 100%. Moreover, the mortality at 20 µg/mL in assay [2] was determined as 66%. For the same compound, the mortality at 100 µg/mL in assay [3] was found to be 81%.

Consider `CCN(Cc1ccc(Cl)nc1)C1=C([N+](=O)[O-])CN(CCCC(=O)OC)CN1C`, for which, in assay [1], the mortality at 500 µg/mL was found to be 100%. Moreover, the mortality at 20 µg/mL in assay [2] worked out at 79%. Moreover, the mortality at 100 µg/mL in assay [3] turned out to be 100%.

For `CCOC(=O)CCCN1CC([N+](=O)[O-])=C(N(CC)Cc2ccc(Cl)nc2)N(C)C1`, in assay [1], the mortality at 500 µg/mL is 100%. Also, the mortality at 20 µg/mL in assay [2] is 85%. In assay [3], the mortality at 100 µg/mL is 100%.

Take `CCCOC(=O)CCCN1CC([N+](=O)[O-])=C(N(CC)Cc2ccc(Cl)nc2)N(C)C1`: the mortality at 500 µg/mL in assay [1] worked out at 100%. Further, in assay [2], the mortality at 20 µg/mL was determined as 43%. Further, the mortality at 100 µg/mL in assay [3] is 100%.

Turning to `CCN(Cc1ccc(Cl)nc1)C1=C([N+](=O)[O-])CN(CCCC(=O)OC(C)C)CN1C`, in assay [1], the mortality at 500 µg/mL was found to be 100%. Further, the mortality at 20 µg/mL in assay [2] amounted to 58%. In addition, the mortality at 100 µg/mL in assay [3] stood at 100%.

In the case of `CCN(Cc1ccc(Cl)nc1)C1=C([N+](=O)[O-])CN(CC(=O)OC)CN1C`, the mortality at 500 µg/mL in assay [1] amounted to 100%. In assay [2], the mortality at 20 µg/mL amounted to 86%. For the same compound, in assay [3], the mortality at 100 µg/mL was 94%.

For the compound `CCOC(=O)CN1CC([N+](=O)[O-])=C(N(CC)Cc2ccc(Cl)nc2)N(C)C1`, in assay [1], the mortality at 500 µg/mL was 100%. For the same compound, the mortality at 20 µg/mL in assay [2] amounted to 94%. Further, the mortality at 100 µg/mL in assay [3] worked out at 100%.

With `CCCOC(=O)CN1CC([N+](=O)[O-])=C(N(CC)Cc2ccc(Cl)nc2)N(C)C1`, in assay [1], the mortality at 500 µg/mL worked out at 100%. The mortality at 20 µg/mL in assay [2] stood at 73%. For the same compound, the mortality at 100 µg/mL in assay [3] was 96%.

On to `CCN(Cc1ccc(Cl)nc1)C1=C([N+](=O)[O-])CN(CC(=O)OC(C)C)CN1C`, for which, in assay [1], the mortality at 500 µg/mL was determined as 100%. Further, the mortality at 20 µg/mL in assay [2] stood at 76%. Besides, in assay [3], the mortality at 100 µg/mL was 85%.

For the compound `CCCCOC(=O)CN1CC([N+](=O)[O-])=C(N(CC)Cc2ccc(Cl)nc2)N(C)C1`, the mortality at 500 µg/mL in assay [1] was found to be 100%. In assay [2], the mortality at 20 µg/mL worked out at 67%. Further, in assay [3], the mortality at 100 µg/mL is 75%.

On to `O=[N+]([O-])/N=C1\NCCN1Cc1ccc(Cl)nc1` [IMIDACLOPRID], for which the mortality at 500 µg/mL in assay [1] is 100%. For the same compound, the LC50 in assay [4] came out at 0.108 µg/mL (≈ 0.422 µM). Besides, in assay [2], the mortality at 20 µg/mL worked out at 100%. Also, the mortality at 100 µg/mL in assay [3] stood at 100%.

As to `CCN(Cc1ccc(Cl)nc1)/C(=C/[N+](=O)[O-])NC` [NITENPYRAM], the mortality at 500 µg/mL in assay [1] is 100%. In addition, in assay [4], the 50% lethal concentration (LC50) is 0.129 µg/mL (≈ 0.477 µM). In assay [2], the mortality at 20 µg/mL turned out to be 100%. Moreover, in assay [3], the mortality at 100 µg/mL amounted to 100%.
